In patent US7176244B1, “Use of 2-nitropropanol, 2-nitroethane, and 2-nitroethanol for control of microbial pathogens” (The United States of America as represented by the …, priority 2002, dated 2007):
Several values for one entry are separate records, joined by “and”; a condition that tells them apart may be missing. Equal values may be shown once. Read-outs that look alike come from different tables or passages of the source.

Assays:
Campylobacter jejuni = assay: Bactericidal effect in Bolton Broth at different pH; assay type: cell-based; details: sodium salt used; 0, 10, 20 mM in Bolton Broth; pH 5.6, 7.2, 8.2
Experimental: The bactericidal effect of 2-nitroethane against Campylobacter jejuni was examined in vitro following substantially the same assay as described in the first experiment of Example 1 except Bolton Broth was utilized rather than TSB. In this experiment nitroethane was added to the Bolton Broth medium in amounts to give 0, 10, and 20 mM final concentrations, and trials were conducted in the media at different pH (5.6, 7.2, and 8.2).
Because 2-nitroethane is somewhat volatile, the sodium salt of the compound was prepared and used in this experiment. The salt was prepared using the process described by Majak et al. (1986, J. Anim. Sci., 62:1072–1080, the contents of which are incorporated by reference herein).

S. Typhimurium [1] = assay: Specific growth rate in tryptic soy broth (A600); assay type: cell-based, Salmonella Typhimurium
Experimental: (§1) The bactericidal effect of 2-nitropropanol and nitroethanol were examined in vitro on several pathogenic bacteria including Salmonella Typhimurium, Escherichia coli O157:H7, Campylobacter jejuni, and Enterococcus faecalis. For an initial in vitro study 2-nitropropanol or nitroethanol were added to tryptic soy broth (TSB) medium in amounts to give 0, 2.5, 5, and 10 mM final concentration. Cultures were inoculated in TSB and incubated at 37° C. Specific growth rates (h^−1) were calculated by measuring optical density (A600) with spectrophotometer.

E. coli O157:H7 = assay: Specific growth rate in tryptic soy broth (A600); assay type: cell-based, Escherichia coli O157:H7; details: 2.5 mM and higher concentrations in TSB, 37° C.
Experimental: as §1

E. faecalis = assay: Specific growth rate in tryptic soy broth (A600); assay type: cell-based, Enterococcus faecalis; details: 10 mM in TSB, 37° C.
Experimental: as §1

S. Typhimurium [2] = assay: pH effect: populations (CFU/ml) in TSB adjusted to different pH, enumerated on TSA; assay type: cell-based, Salmonella Typhimurium; details: 37° C.
Experimental: In order to observe the pH effect on this 2-nitropropanol, S. Typhimurium was inoculated into TSB medium adjusted to different pH (5.6, 7.2, and 8.0) with 2-nitropropanol (0, 2.5, and 10 mM final concentration) and incubated at 37° C. Populations of S. Typhimurium were determined (CFU/ml) by enumerating on tryptic soy agar (TSA) at 3, 6, and 24 h. […] However, S. Typhimurium was totally inactivated (more than 5 log reductions) at 10 mM 2-nitropropanol regardless of pH (FIG. 2).

C. jejuni = assay: Bactericidal effect in Campylobacter enrichment broth, direct plating and enrichment; assay type: cell-based, Campylobacter jejuni; details: 48 h, pH 5.6 and 7.0, 42° C.
Experimental: The bactericidal effect against C. jejuni was also determined in vitro. Cultures were inoculated into Campylobacter enrichment broth containing 2-nitropropanol at 0, 5, 10, and 20 mM of final and incubated at 42° C.

S. Typhimurium [3] = assay type: cell-based, Salmonella Typhimurium; details: 10 mM
Experimental: Another experiment was conducted to evaluate the bactericidal effect of 2-nitropropanol against S. Typhimurium in buffered rumen and fecal fluid containing viable populations of endogenous anaerobes. Briefly, ruminal contents and feces were retrieved and strained. Both collected fluids were transferred to laboratory and mixed with anoxic phosphate buffer (pH 6.8). Antibiotic-marked (25 μg novobiocin/ml and 20 μg/ml of nalidixic acid resistant) (NN)S. Typhimurium cultures were inoculated into these mixtures supplemented with 2-nitropropanol at various concentrations (0, 2.5, and 10 mM of final). Those inoculated tubes were incubated at 37° C. and populations were monitored at different sampling time (0, 3, 6, and 24 h) by direct plating onto brilliant green agar (BGA) containing NN.

Salmonella Typhimurium [4] = assay type: in vivo, broiler chicks; details: oral gavage, 24 h, Experiment 1
Experimental: The bactericidal effect of 2-nitropropanol on Salmonella typhimurium was determined in vivo. The in vivo study was conducted using 7-day-old chick experimentally infected with S. Typhimurium. In experiment 1, chicks were orally challenged with 10^6 cfu of NN-resistant strain of S. Typhimurium. Chicks were divided into four groups; control, 1 (13 mg 2-nitropropanol/bird), 5 (65 mg 2-nitropropanol/bird) and 10×(130 mg 2-nitropropanol/bird). Treatments were administered via oral gavage. After 24 h, cecal contents were aseptically removed and subjected to bacterial analysis.

Salmonella Typhimurium [5] = assay: Cecal populations in experimentally challenged broiler chicks, experiment 2; assay type: in vivo; details: oral gavage
Experimental: Significant (P<0.05) log reductions occurred in group administered 1×(13 mg/bird) dose for both 24 and 48 h duration compared to untreated control.

Listeria monocytogenes = assay: Bactericidal effect in Tryptic Soy Broth at different pH; assay type: cell-based; details: pH 5.6, 7.2, 8.2, 37° C.
Experimental: The bactericidal effect of 2-nitropropanol against Listeria monocytogenes was examined in vitro following the same assay as described in the first and second experiments of Example 1. Trials were conducted in the media at different pH (5.6, 7.2, and 8.2).

## CC[N+](=O)[O-] [2-nitroethane]
Campylobacter jejuni
  pH dependence of bactericidal effect against Campylobacter jejuni: increased at alkaline pH

## O=[N+]([O-])CCO [2-nitroethanol]
S. Typhimurium [1]
  growth of S. Typhimurium (specific growth rate): largely prohibited
E. coli O157:H7
  growth of E. coli O157:H7 (specific growth rate): largely prohibited

## CC(CO)[N+](=O)[O-] (stereo not shown) [2-nitropropanol]
S. Typhimurium [1]; 2.5 mM and higher concentrations in TSB, 37° C.
  growth of S. Typhimurium (specific growth rate): largely prohibited
E. coli O157:H7
  growth of E. coli O157:H7 (specific growth rate): largely prohibited
E. faecalis
  growth of E. faecalis (specific growth rate): markedly inhibited
S. Typhimurium [2]; 2.5 mM, pH 5.6, after 24 h
  reduction of S. Typhimurium cells: approximately 3 log
S. Typhimurium [2]; 10 mM, regardless of pH (5.6, 7.2, 8.0)
  reduction of S. Typhimurium cells (totally inactivated): more than 5 log
C. jejuni; 10 mM
  inactivation of C. jejuni cultures: completely inactivated
C. jejuni; 20 mM
  inactivation of C. jejuni cultures: completely inactivated
S. Typhimurium [3]; fecal fluid in anoxic phosphate buffer pH 6.8, 37° C.
  reductions of Salmonella populations compared to controls: 2–3 log
S. Typhimurium [3]; ruminal fluid in anoxic phosphate buffer pH 6.8, 37° C.
  reductions of Salmonella populations compared to controls: 2–3 log
Salmonella Typhimurium [4]; 1× = 13 mg per bird
  Mean log CFU/g of cecal content (standard deviation): 3.65±2.01 log CFU/g and 3.65 (2.01) B log CFU/g
Salmonella Typhimurium [4]; 5× = 65 mg per bird
  Mean log CFU/g of cecal content (standard deviation): 3.39±2.42 log CFU/g and 3.39 (2.42) B log CFU/g
Salmonella Typhimurium [4]; 10× = 130 mg per bird
  Mean log CFU/g of cecal content (standard deviation): 3.47 ± 1.55 log CFU/g and 3.46 (1.55) B log CFU/g
Salmonella Typhimurium [5]; 0.5× = 6.5 mg per bird, 24 h
  Salmonella Typhimurium, Mean log CFU/g of cecal content (standard deviation): 4.19 (2.53) A log CFU/g
Salmonella Typhimurium [5]; 0.5× = 6.5 mg per bird, 48 h
  Salmonella Typhimurium, Mean log CFU/g of cecal content (standard deviation): 3.84 (2.69) AB log CFU/g
Salmonella Typhimurium [5]; 0.5× = 6.5 mg per bird, Combined 24 and 48 h
  Salmonella Typhimurium, Mean log CFU/g of cecal content (standard deviation): 4.01 (2.59) A log CFU/g
Salmonella Typhimurium [5]; 1× = 13 mg per bird, 24 h
  Salmonella Typhimurium, Mean log CFU/g of cecal content (standard deviation): 2.58 (2.10) B log CFU/g
Salmonella Typhimurium [5]; 1× = 13 mg per bird, 48 h
  Salmonella Typhimurium, Mean log CFU/g of cecal content (standard deviation): 2.88 (2.78) B log CFU/g
Salmonella Typhimurium [5]; 1× = 13 mg per bird, Combined 24 and 48 h
  Salmonella Typhimurium, Mean log CFU/g of cecal content (standard deviation): 2.73±2.45 log CFU/g and 2.73 (2.45) B log CFU/g
Listeria monocytogenes
  pH dependence of bactericidal effect against Listeria monocytogenes: enhanced in an acidic or alkaline environment, but is somewhat reduced at neutral pH
